Measured values reported in US20260138970A1, “MODULATORS OF THE CALCIUM SIGNALING CASCADE” (FONDAZIONE TELETHON ETS, priority 2022, published 2026).

How the values were obtained:
[1] = tested on: protease-activated receptors; assay: Fluo-4 Ca2+ assay, SLIGR-NH2 stimulus, HEKR1 cells; type: cell-based; details: SLIGR-NH2 10 μM; compounds 10 μM; FIG. 5C top
Method: (§1) Experiments were performed using the microplate reader described for the HS-YFP assay. FRT and HEK293 cells were cultured until confluence in 96-well microplates (3603, Corning). Cells were washed 2 times with PBS (150 μl/wash) and then loaded for 1 h at 37° C. with 5 μM Fluo-4/AM (Thermo Fisher Scientific; catalog number: F23917) in PBS containing 10 mM glucose, 0.5 mM sulfinpyrazone, and 1% fetal bovine serum. After loading, cells were washed 2 times with PBS-glucose-sulfinpyrazone (150 μl/wash) and incubated for 20 min at 37° C. with 60 μl of PBS plus 10 mM glucose and 0.5 mM sulfinpyrazone containing compounds of interest at 10 μM final concentration or vehicle. Each well was assayed individually. Fluo-4 fluorescence (500 nm excitation, 535 nm emission) was detected every 200 ms for 16-40 s. Two seconds after the start of fluorescence recording, the reader automatically injected 165 μl of a modified PBS containing 136 mM KCl instead of NaCl. This solution also contained 10 mM glucose, 0.5 mM sulfinpyrazone, and UTP or SLIGR-NH2 (CAS #171436-38-7) at a final concentration that depended on the specific cell type. For UTP we used: 0.25 μM for FRT; 1 μM for HEKR2; 5 μM for HEK3XKO, HEKR1, and HEKR3. For SLIGR-NH2 we used: 10 μM for HEKR1; 4 μM for HEKR2. These concentrations were chosen to elicit ˜20% of maximal effect based on UTP and SLIGR-NH2 dose-response relationships. The lower agonist concentrations used for HEKR2 cells, compared to HEKR1 cells, are consistent with the higher affinity of ITPR2 for IP3 (16). The Fluo-4 fluorescence increase was quantified using a procedure compiled in Microsoft Excel after background subtraction and normalization for the initial value measured before UTP addition.

ITPR2 = biological target: T1, ITPR2 (Homo sapiens, UniProt Q14571); assay: Fluo-4 Ca2+ assay, UTP, HEK293 cells with selective expression of ITPR2 (HEKR2); type: cell-based; details: compounds 10 μM; UTP 1 μM; FIG. 2C
T1 construct: host or cells: HEKR2 (HEK293)
T1 sequence (Q14571 whole entry): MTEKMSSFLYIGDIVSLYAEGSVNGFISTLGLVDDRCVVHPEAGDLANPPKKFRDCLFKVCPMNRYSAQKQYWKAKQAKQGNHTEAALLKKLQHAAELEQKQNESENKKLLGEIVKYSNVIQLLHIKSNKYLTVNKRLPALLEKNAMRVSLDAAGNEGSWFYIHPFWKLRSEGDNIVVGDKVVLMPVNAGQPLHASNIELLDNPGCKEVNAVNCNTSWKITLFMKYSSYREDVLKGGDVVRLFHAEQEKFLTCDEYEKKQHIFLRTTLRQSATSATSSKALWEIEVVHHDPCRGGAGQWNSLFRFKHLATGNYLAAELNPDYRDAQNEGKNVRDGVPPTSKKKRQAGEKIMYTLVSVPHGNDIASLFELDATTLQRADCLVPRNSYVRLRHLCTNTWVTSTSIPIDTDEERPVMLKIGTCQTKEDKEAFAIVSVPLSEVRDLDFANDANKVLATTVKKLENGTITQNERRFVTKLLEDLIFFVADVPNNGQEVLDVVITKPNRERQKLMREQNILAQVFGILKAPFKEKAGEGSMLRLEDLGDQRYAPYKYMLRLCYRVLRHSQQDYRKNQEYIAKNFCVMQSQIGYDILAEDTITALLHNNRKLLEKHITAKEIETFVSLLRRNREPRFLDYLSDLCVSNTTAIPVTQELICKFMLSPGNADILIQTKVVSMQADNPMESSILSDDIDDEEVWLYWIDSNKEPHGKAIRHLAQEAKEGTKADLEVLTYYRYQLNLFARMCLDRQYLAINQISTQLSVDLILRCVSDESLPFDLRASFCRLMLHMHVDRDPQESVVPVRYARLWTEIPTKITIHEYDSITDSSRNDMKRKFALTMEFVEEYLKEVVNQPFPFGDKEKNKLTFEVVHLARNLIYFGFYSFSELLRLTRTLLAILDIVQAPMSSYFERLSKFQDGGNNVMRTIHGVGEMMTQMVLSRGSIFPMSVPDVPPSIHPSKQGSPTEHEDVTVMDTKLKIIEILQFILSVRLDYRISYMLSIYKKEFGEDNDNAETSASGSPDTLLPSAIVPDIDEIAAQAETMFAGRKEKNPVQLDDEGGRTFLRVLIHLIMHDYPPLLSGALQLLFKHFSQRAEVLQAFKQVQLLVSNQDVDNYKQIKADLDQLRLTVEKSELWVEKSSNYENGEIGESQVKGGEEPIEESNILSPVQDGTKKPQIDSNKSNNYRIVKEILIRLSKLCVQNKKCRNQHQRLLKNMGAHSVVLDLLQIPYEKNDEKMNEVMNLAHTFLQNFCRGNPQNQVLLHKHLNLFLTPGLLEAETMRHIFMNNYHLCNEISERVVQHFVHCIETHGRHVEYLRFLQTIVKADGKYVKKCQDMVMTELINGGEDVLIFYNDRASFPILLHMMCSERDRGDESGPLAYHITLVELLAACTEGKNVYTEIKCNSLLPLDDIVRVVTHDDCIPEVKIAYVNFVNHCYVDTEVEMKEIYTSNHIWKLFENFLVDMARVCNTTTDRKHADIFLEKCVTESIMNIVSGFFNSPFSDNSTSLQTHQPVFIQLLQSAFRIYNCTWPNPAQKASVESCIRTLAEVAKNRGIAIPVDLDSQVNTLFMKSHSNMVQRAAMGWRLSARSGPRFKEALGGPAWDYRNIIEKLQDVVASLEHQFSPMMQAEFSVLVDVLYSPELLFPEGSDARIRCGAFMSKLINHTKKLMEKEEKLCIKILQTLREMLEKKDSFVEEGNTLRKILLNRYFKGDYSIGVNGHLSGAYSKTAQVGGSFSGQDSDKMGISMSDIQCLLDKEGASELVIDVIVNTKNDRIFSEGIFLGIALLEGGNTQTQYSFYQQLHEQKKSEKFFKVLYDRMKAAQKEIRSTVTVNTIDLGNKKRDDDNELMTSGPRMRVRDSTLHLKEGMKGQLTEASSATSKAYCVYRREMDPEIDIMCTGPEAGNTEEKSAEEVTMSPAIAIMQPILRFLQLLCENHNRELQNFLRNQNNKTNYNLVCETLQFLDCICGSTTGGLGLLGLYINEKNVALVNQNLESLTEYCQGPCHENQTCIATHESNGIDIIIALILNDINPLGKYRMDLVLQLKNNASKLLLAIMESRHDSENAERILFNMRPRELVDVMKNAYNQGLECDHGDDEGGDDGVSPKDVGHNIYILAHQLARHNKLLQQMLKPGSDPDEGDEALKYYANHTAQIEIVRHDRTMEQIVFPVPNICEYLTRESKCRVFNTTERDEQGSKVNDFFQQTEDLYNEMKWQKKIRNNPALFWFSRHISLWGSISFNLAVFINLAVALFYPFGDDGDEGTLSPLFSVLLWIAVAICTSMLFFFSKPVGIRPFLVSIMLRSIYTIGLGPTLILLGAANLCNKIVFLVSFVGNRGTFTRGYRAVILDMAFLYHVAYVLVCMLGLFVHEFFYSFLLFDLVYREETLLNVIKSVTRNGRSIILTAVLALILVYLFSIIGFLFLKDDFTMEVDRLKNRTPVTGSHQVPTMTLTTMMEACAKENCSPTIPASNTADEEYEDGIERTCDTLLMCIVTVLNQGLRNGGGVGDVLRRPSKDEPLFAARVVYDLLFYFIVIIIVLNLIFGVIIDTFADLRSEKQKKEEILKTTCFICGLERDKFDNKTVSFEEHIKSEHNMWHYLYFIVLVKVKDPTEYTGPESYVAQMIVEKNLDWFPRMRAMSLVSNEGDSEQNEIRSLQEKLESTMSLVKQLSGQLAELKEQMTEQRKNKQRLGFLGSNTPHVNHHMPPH
Method: (§2) HEK293 cells totally devoid of ITPR expression (HEK3XKO) or with selective expression of ITPR1 (HEKR1), ITPR2 (HEKR2), or ITPR3 (HEKR3), obtained by selective gene ablation, were purchased from Kerafast (catalog number: EURO30, EURO31, EURO32, EURO33) and cultured in a mixture of Dulbecco's Modified Eagle Medium (DMEM, high glucose version) and Ham's F12 (1:1) and supplemented with 10% fetal bovine serum, 2 mM L-glutamine, 100 U/ml penicillin and 100 μg/ml streptomycin.
as §1, with “The lower agonist concentrations used for HEKR2 cells, compared to HEKR1 cells, are consistent with the higher affinity of ITPR2 for IP3 (16).” left out

ITPR1 = ITPR1 (Homo sapiens, UniProt Q14643); assay: Fluo-4 Ca2+ assay, UTP, HEK293 cells with selective expression of ITPR1 (HEKR1); type: cell-based; set-up: host or cells: HEKR1 (HEK293); details: compounds 10 μM; UTP 5 μM; FIG. 2C
Method: as §2
as §1, with “The lower agonist concentrations used for HEKR2 cells, compared to HEKR1 cells, are consistent with the higher affinity of ITPR2 for IP3 (16).” left out

ITPR3 = biological target: T2, ITPR3 (Homo sapiens, UniProt Q14573); assay: Fluo-4 Ca2+ assay, UTP, HEK293 cells with selective expression of ITPR3 (HEKR3); type: cell-based; details: compounds 10 μM; UTP 5 μM; FIG. 2C
T2 construct: host or cells: HEKR3 (HEK293)
Method: as §2
as §1, with “The lower agonist concentrations used for HEKR2 cells, compared to HEKR1 cells, are consistent with the higher affinity of ITPR2 for IP3 (16).” left out

FRT cells = assay: Fluo-4 Ca2+ mobilization assay in parental (null) FRT cells; type: cell-based, rat; details: for direct Ca2+ mobilization in the absence of UTP (Fluo-4): acute addition, Eact 5 μM, FIG. 2B; for direct Ca2+ mobilization in the absence of UTP (Fluo-4) / potentiation of UTP-dependent Ca2+ increase (Fluo-4): compounds 10 μM; for potentiation of UTP-dependent Ca2+ increase (Fluo-4): FIG. 2A
Method: as §1, with “After loading, cells were washed 2 times with PBS-glucose-sulfinpyrazone (150 μl/wash) and incubated for 20 min at 37° C. with 60 μl of PBS plus 10 mM glucose and 0.5 mM sulfinpyrazone containing compounds of interest at 10 μM final concentration or vehicle.” left out
In a further experimental setting, experiments were performed using as above the FLUOstar Omega (BMG Labtech, Offenburg, Germany) microplate reader equipped with syringe pumps and optical excitation/emission filters optimized for yellow fluorescent protein (YFP) fluorescence (ET500/20× and ET535/30m, respectively; Chroma Technology Corporation). FRT and Chem-1 cells were cultured until confluence in 96-well microplates (cc3603, Corning). Cells were washed 2 times with PBS (150 μl/wash) and then loaded for 1 h at 37° C. with 5 μM Fluo-4/AM (Thermo Fisher Scientific; catalog number: F23917) in PBS containing 10 mM glucose, 0.5 mM sulfinpyrazone, and 1% fetal bovine serum. […] Each well was assayed individually. Fluo-4 fluorescence (500 nm excitation, 535 nm emission) was detected every 200 ms for 16-40 s. Two seconds after the start of fluorescence recording, the reader automatically injected 165 μl of a modified PBS containing 136 mM KCl instead of NaCl. This solution also contained, in addition to 10 mM glucose and 0.5 mM sulfinpyrazone, the following agonists: UTP (U6625, Merck) or CCK8s (23371, Cayman Chemical). The Fluo-4 fluorescence increase was quantified using a procedure compiled in Microsoft Excel after background subtraction and normalization for the initial value measured before UTP or CCK8s addition.

SMILES | potentiation of SLIGR-NH2 stimulus (Ca2+ mobilization), HEKR1 cells [1] | potentiation of UTP-elicited Ca2+ increase, ITPR2-only cells (ITPR2) | potentiation of UTP-elicited Ca2+ increase, ITPR1-only cells (ITPR1) | potentiation of UTP-elicited Ca2+ increase, ITPR3-only cells (ITPR3) | direct Ca2+ mobilization in the absence of UTP (Fluo-4) (FRT cells) | potentiation of UTP-dependent Ca2+ increase (Fluo-4) (FRT cells; UTP 0.25 μM) | potentiation of the Ca2+ increase elicited by UTP, multiple concentrations (FRT cells; UTP 0.25 μM, compounds 1-80 μM, vs vehicle (DMSO), FIG. 8)
OCc1ccccc1CN(Cc1ccnc(N2CCCC2)n1)c1ccc(F)cc1 [ARN4550, [2-[[4-Fluoro-N-[(2-pyrrolidin-1-ylpyrimidin-4-yl)methyl]anilino]methyl]phenyl]methanol] | effective as potentiators | always effective | always effective | always effective | No effect | able to potentiate | –
CCc1cc(-c2cc(NCCCOc3ccccc3C)nc(N)n2)n(C)n1 [ARN7149, 6-(3-Ethyl-1-methyl-1H-pyrazol-5-yl)-N^4-(3-(o-tolyloxy)propyl)pyrimidine-2,4-diamine] | significant inhibition | always effective | always effective | always effective | No effect | able to potentiate | –
CCn1nc2c(c1C(=O)Nc1ccccc1OCC1CCCCO1)CCCC2 (stereo not shown) [ARN11391, 2-Ethyl-N-[2-(tetrahydropyran-2-ylmethoxy)phenyl]-4,5,6,7-tetrahydroindazole-3-carboxamide] | effective as potentiators | only effective in cells with ITPR1 | effective | only effective in cells with ITPR1 | No effect | able to potentiate | dose-dependent potentiation
